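Each compound was tested at five concentrations against cells in 96-well plates for 48 hours. GI50 marks 50% less growth.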 The source made the active and inactive calls. Rule as the data show it: active = GI50 up to about 1.1 µM and inactive = higher.
Columns and labels:
Test in all cases: NCI-60 cell line screen, 48 h
CAKI-1 = tested on: CAKI-1
M19-MEL = tested on: M19-MEL
OVCAR-8 = tested on: OVCAR-8
EKVX = tested on: EKVX
DMS-273 = tested on: DMS-273
SNB-75 = tested on: SNB-75
XF498 = tested on: XF498
NCI-H522 = tested on: NCI-H522
UO-31 = tested on: UO-31
SF-295 = tested on: SF-295
KM12 = tested on: KM12
HCT-116 = tested on: HCT-116
SK-MEL-2 = tested on: SK-MEL-2
RXF 631 = tested on: RXF 631
HT-29 = tested on: HT-29
SW-620 = tested on: SW-620
A549 = tested on: A549
HOP-18 = tested on: HOP-18
UACC-62 = tested on: UACC-62
RXF 393 = tested on: RXF 393
SN12C = tested on: SN12C
K562 = tested on: K562
HCC 2998 = tested on: HCC 2998
LXFL 529 = tested on: LXFL 529
SNB-19 = tested on: SNB-19
SNB-78 = tested on: SNB-78
DMS-114 = tested on: DMS-114
HCT-15 = tested on: HCT-15
HL-60 = tested on: HL-60
SK-MEL-5 = tested on: SK-MEL-5
OVCAR-3 = tested on: OVCAR-3
Malme-3M = tested on: Malme-3M
TK-10 = tested on: TK-10
ACHN = tested on: ACHN
A498 = tested on: A498
SR = tested on: SR
IGROV-1 = tested on: IGROV-1
SF-268 = tested on: SF-268
HOP-62 = tested on: HOP-62
SF-539 = tested on: SF-539
NCI-H460 = tested on: NCI-H460
DLD-1 = tested on: DLD-1
M14 = tested on: M14
SK-MEL-28 = tested on: SK-MEL-28
SK-OV-3 = tested on: SK-OV-3
NCI-H23 = tested on: NCI-H23
COLO 205 = tested on: COLO 205
KM-20L2 = tested on: KM-20L2
RPMI-8226 = tested on: RPMI-8226
OVCAR-4 = tested on: OVCAR-4
CCRF-CEM = tested on: CCRF-CEM
U-251 = tested on: U-251
LOX IMVI = tested on: LOX IMVI
MOLT-4 = tested on: MOLT-4
HOP-92 = tested on: HOP-92
OVCAR-5 = tested on: OVCAR-5
NCI-H226 = tested on: NCI-H226
UACC-257 = tested on: UACC-257
786-0 = tested on: 786-0

Structure (SMILES): Cc1ccc(C2CC(c3cccc([N+](=O)[O-])c3)=Nc3ccccc3S2)cc1 (centres undefined)
- GI50 (CAKI-1): 24.3 µM (inactive)
- GI50 (M19-MEL): 40.4 µM (inactive)
- GI50 (OVCAR-8): 24.2 µM (inactive)
- GI50 (EKVX): > 88.1 µM (inactive)
- GI50 (DMS-273): 33.7 µM (inactive)
- GI50 (SNB-75): 21 µM (inactive)
- GI50 (XF498): 21.4 µM (inactive)
- GI50 (NCI-H522): 20.5 µM (inactive)
- GI50 (UO-31): 20.8 µM (inactive)
- GI50 (SF-295): 50.7 µM (inactive)
- GI50 (KM12): 18 µM (inactive)
- GI50 (HCT-116): 13.3 µM (inactive)
- GI50 (SK-MEL-2): 38.3 µM (inactive)
- GI50 (RXF 631): > 93.8 µM (inactive)
- GI50 (HT-29): 32.4 µM (inactive)
- GI50 (SW-620): 16.1 µM (inactive)
- GI50 (A549): 48.8 µM (inactive)
- GI50 (HOP-18): 15.4 µM (inactive)
- GI50 (UACC-62): 25.4 µM (inactive)
- GI50 (RXF 393): 29 µM (inactive)
- GI50 (SN12C): 32.9 µM (inactive)
- GI50 (K562): 20.6 µM (inactive)
- GI50 (HCC 2998): 82.2 µM (inactive)
- GI50 (LXFL 529): 27.2 µM (inactive)
- GI50 (SNB-19): > 58.3 µM (inactive)
- GI50 (SNB-78): 23.2 µM (inactive)
- GI50 (DMS-114): 22.5 µM (inactive)
- GI50 (HCT-15): 25.5 µM
- GI50 (HL-60): 20.1 µM (inactive)
- GI50 (SK-MEL-5): 25.4 µM (inactive)
- GI50 (OVCAR-3): 28.5 µM (inactive)
- GI50 (Malme-3M): > 88.9 µM (inactive)
- GI50 (TK-10): 83.2 µM (inactive)
- GI50 (ACHN): 50.1 µM (inactive)
- GI50 (A498): > 54.3 µM (inactive)
- GI50 (SR): 25.8 µM (inactive)
- GI50 (IGROV-1): 63.8 µM (inactive)
- GI50 (SF-268): 34.9 µM (inactive)
- GI50 (HOP-62): > 62.8 µM (inactive)
- GI50 (SF-539): 51.5 µM (inactive)
- GI50 (NCI-H460): 68.5 µM (inactive)
- GI50 (DLD-1): 20 µM (inactive)
- GI50 (M14): 31.8 µM (inactive)
- GI50 (SK-MEL-28): 62.4 µM (inactive)
- GI50 (SK-OV-3): > 100 µM (inactive)
- GI50 (NCI-H23): 22.9 µM (inactive)
- GI50 (COLO 205): 98.2 µM (inactive)
- GI50 (KM-20L2): 44.5 µM (inactive)
- GI50 (RPMI-8226): 7.83 µM (inactive)
- GI50 (OVCAR-4): 44.6 µM (inactive)
- GI50 (CCRF-CEM): 23.2 µM (inactive)
- GI50 (U-251): 27.5 µM (inactive)
- GI50 (LOX IMVI): 21.6 µM (inactive)
- GI50 (MOLT-4): 25.5 µM (inactive)
- GI50 (HOP-92): 7.01 µM (inactive)
- GI50 (OVCAR-5): > 100 µM (inactive)
- GI50 (NCI-H226): > 44.1 µM (inactive)
- GI50 (UACC-257): 34.6 µM (inactive)
- GI50 (786-0): 21.8 µM (inactive)

— ChEMBL document CHEMBL1201862, “PubChem BioAssay data set” (2004)
